The results in this text go back to ChEMBL document CHEMBL5223150, “Targeting the PI3K/AKT/mTOR Signaling Pathway in the Treatment of Human Diseases: Current Status, Trends, and Solutions” (J Med Chem, 2022).

This data set is described as follows: Metabolic stability in human liver microsomes assessed as compound remaining after 1 hr. Format: ADME, Microsome. The following applies: read-out: Stability. Background: Microsomes from liver hold many membrane-bound enzymes, among them those of drug oxidation.

`O=C(N1CCN(c2ncnc3[nH]nc(Cl)c23)CC1)C1(c2ccc(Cl)c(Cl)c2)CCNCC1`: the remaining at 1 h stood at 80%.
